# Experimental data as given in patent publication US10093660B2, “Sulfoximine substituted quinazolines for pharmaceutical compositions” (EVOTEC INTERNATIONAL GMBH, priority 2013, dated 2018).
# Columns and labels:
# MNK2a = MNK2a (Homo sapiens (Human), UniProt Q9HBH9); assay: MNK2a in vitro kinase assay (Assay 2), ADP-Glo; assay type: biochemical; conditions: assay 2; read-out: MNK2 IC50
# From the text: B. MNK2a In Vitro Kinase Assay (Assay 2)
# MNK1a = MNK1a (Homo sapiens (Human), UniProt Q9BUB5); assay: MNK1 in vitro kinase assay (Assay 3), Z'-LYTE; assay type: biochemical; conditions: for inhibition at 1 µM: compound concentration of 1 μM, read-out: MNK1 % INH
# Sequence of MNK1a (Q9BUB5 other isoform, or with tags, fused parts or gaps): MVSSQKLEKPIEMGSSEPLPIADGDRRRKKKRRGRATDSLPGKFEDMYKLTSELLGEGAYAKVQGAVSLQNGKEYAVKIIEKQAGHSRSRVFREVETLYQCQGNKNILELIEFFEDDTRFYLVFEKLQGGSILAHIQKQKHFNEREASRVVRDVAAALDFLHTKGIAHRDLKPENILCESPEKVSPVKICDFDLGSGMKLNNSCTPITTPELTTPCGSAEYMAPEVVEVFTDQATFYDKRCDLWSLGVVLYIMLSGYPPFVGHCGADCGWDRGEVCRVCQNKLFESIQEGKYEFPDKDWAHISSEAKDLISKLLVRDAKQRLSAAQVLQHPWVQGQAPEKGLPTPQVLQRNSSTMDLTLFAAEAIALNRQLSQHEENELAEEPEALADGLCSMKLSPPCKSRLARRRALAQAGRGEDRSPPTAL
# Sequence of MNK2a (Q9HBH9 whole entry): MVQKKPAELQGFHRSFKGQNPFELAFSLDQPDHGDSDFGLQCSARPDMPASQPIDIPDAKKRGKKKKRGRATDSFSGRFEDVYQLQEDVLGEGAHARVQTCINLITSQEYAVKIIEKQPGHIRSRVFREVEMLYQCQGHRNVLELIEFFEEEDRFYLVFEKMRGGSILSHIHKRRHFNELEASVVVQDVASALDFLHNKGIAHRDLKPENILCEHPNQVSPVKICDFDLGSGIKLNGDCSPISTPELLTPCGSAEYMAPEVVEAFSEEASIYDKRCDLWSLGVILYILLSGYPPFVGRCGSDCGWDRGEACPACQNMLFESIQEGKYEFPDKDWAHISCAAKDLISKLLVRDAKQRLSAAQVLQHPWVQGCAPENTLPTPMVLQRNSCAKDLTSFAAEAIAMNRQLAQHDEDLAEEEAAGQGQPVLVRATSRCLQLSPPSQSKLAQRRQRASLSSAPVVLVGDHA
IC50 (MNK2a),IC50 (MNK1a),inhibition at 1 µM (MNK1a),Structure (SMILES)
3 nM,66 nM,–,Cc1cc(N=S2(=O)CCCC2)cc2ncnc(Nc3ccc(Cl)nc3O[C@@H]3COC[C@H]3O)c12 [Example 2.54]
3 nM,–,91%,CS(C)(=O)=Nc1cc(F)c2c(Nc3ccc(F)cc3O[C@H]3COC[C@@H]3O)ncnc2c1 [Example 2.55]
4 nM,–,99%,Cc1cc(N=S(C)(C)=O)cc2ncnc(Nc3ccc(F)cc3O[C@H]3CN(S(C)(=O)=O)C[C@@H]3O)c12 [Example 2.59]
3 nM,37 nM,–,Cc1cc(N=S2(=O)CCCC2)cc2ncnc(Nc3ccc(F)cc3O[C@H]3CN(S(C)(=O)=O)C[C@@H]3O)c12 [Example 2.60]
33 nM,–,78%,Cc1cc(N=S(C)(C)=O)cc2ncnc(Nc3ccc(F)cc3O[C@H]3CN(C)C[C@@H]3O)c12 [Example 2.62]
9 nM,–,88%,Cc1cc(N=[S@@](C)(=O)c2ccccc2)cc2ncnc(Nc3ccc(F)cc3O[C@@H]3COC[C@@H]3O)c12 [Example 2.64]
7 nM,–,91%,Cc1cc(N=S(C)(=O)C(C)C)cc2ncnc(Nc3ccc(F)cc3O[C@H]3COC[C@@H]3O)c12 (some centres unmarked) [Example 2.74]
8 nM,95 nM,–,Cc1cc(N=S(C)(=O)c2ccccc2)cc2ncnc(Nc3ccc(F)cc3O[C@H]3COC[C@@H]3O)c12 (some centres unmarked) [Example 2.75]
11 nM,107 nM,–,Cc1cc(N=S(C)(=O)C2CCOCC2)cc2ncnc(Nc3ccc(F)cc3O[C@H]3COC[C@@H]3O)c12 (some centres unmarked) [Example 2.78]
10 nM,–,85%,Cc1cc(N=S(C)(=O)C(C)(C)C)cc2ncnc(Nc3ccc(F)cc3O[C@H]3COC[C@@H]3O)c12 (some centres unmarked) [Example 2.79]
4 nM,–,96%,CC1CCS(=O)(=Nc2cc(F)c3c(Nc4ccc(F)cc4O[C@H]4COC[C@@H]4O)ncnc3c2)C1 (some centres unmarked) [Example 2.80]
14 nM,–,91%,Cc1cc(N=S(C)(=O)c2cccnc2)cc2ncnc(Nc3ccc(F)cc3O[C@H]3COC[C@@H]3O)c12 (some centres unmarked) [Example 2.81]
3 nM,–,97%,Cc1cc(N=S2(=O)CCC(C)C2)cc2ncnc(Nc3ccc(F)cc3O[C@H]3COC[C@@H]3O)c12 (some centres unmarked) [Example 2.85]
2 nM,44 nM,99%,O=S1(=Nc2cc(F)c3c(Nc4ccc(F)cc4O[C@H]4COC[C@@H]4O)ncnc3c2)CCC1 [Example 2.92]
31 nM,–,74%,CC(=O)N1C[C@@H](O)[C@H](Oc2cc(F)ccc2Nc2ncnc3cc(N=S(C)(C)=O)cc(C)c23)C1 [Example 2.102]
29 nM,–,93%,Cc1cc(N=S2(=O)CCCC2)cc2ncnc(Nc3cccnc3O[C@@H]3CNC[C@H]3O)c12 [Example 3.1]
47 nM,–,66%,Cc1cc(N=S(C)(C)=O)cc2ncnc(Nc3cccnc3O[C@@H]3CNC[C@H]3O)c12 [Example 3.2]
26 nM,–,88%,Cc1cc(N=S2(=O)CCCC2)cc2ncnc(Nc3cccnc3O[C@H]3CNC[C@@H]3O)c12 [Example 3.3]
21 nM,–,82%,Cc1cc(N=S(C)(C)=O)cc2ncnc(Nc3ccc(F)cc3O[C@@H]3CNC[C@H]3O)c12 [Example 3.4]

IC50 (MNK2a),IC50 (MNK1a),inhibition at 1 µM (MNK1a),Structure (SMILES)
6 nM,97 nM,–,Cc1cc(N=S2(=O)CCCC2)cc2ncnc(Nc3ccc(F)cc3O[C@@H]3CNC[C@H]3O)c12 [Example 3.5]
38 nM,–,84%,Cc1cc(N=S(C)(C)=O)cc2ncnc(Nc3ccc(F)cc3O[C@H]3CNC[C@@H]3O)c12 [Example 3.7]
45 nM,–,64%,CO[C@@H]1CNC[C@H]1Oc1cc(F)ccc1Nc1ncnc2cc(N=S(C)(C)=O)cc(C)c12 [Example 4.1]
8 nM,–,87%,CO[C@@H]1CNC[C@H]1Oc1cc(F)ccc1Nc1ncnc2cc(N=S3(=O)CCCC3)cc(C)c12 [Example 4.2]
40 nM,–,54%,CCN1C[C@@H](OC)[C@H](Oc2cc(F)ccc2Nc2ncnc3cc(N=S4(=O)CCCC4)cc(C)c23)C1 [Example 4.3]
11 nM,–,93%,CO[C@@H]1CNC[C@H]1Oc1ncccc1Nc1ncnc2cc(N=S3(=O)CCCC3)cc(C)c12 [Example 4.4]
33 nM,–,63%,CO[C@@H]1CNC[C@H]1Oc1ncccc1Nc1ncnc2cc(N=S(C)(C)=O)cc(C)c12 [Example 4.5]
16 nM,373 nM,–,CO[C@@H]1CN(CC(F)F)C[C@H]1Oc1cc(F)ccc1Nc1ncnc2cc(N=S3(=O)CCCC3)cc(C)c12 [Example 5.1]
72 nM,–,56%,CO[C@@H]1CN(CC(F)F)C[C@H]1Oc1ncccc1Nc1ncnc2cc(N=S(C)(C)=O)cc(C)c12 [Example 5.2]
109 nM,–,31%,CO[C@@H]1CN(CCF)C[C@H]1Oc1ncccc1Nc1ncnc2cc(N=S(C)(C)=O)cc(C)c12 [Example 5.3]
44 nM,–,35%,CO[C@@H]1CN(CC(F)F)C[C@H]1Oc1cc(F)ccc1Nc1ncnc2cc(N=S(C)(C)=O)cc(C)c12 [Example 5.4]
13 nM,–,85%,CO[C@@H]1CN(CC(F)F)C[C@H]1Oc1ncccc1Nc1ncnc2cc(N=S3(=O)CCCC3)cc(C)c12 [Example 5.5]
389 nM,–,10%,CO[C@@H]1CN(C(C)=O)C[C@H]1Oc1cc(F)ccc1Nc1ncnc2cc(N=S(C)(C)=O)cc(C)c12 [Example 6.1]
185 nM,–,31%,CO[C@@H]1CN(C(C)=O)C[C@H]1Oc1cc(F)ccc1Nc1ncnc2cc(N=S3(=O)CCCC3)cc(C)c12 [Example 6.2]
584 nM,–,9%,CO[C@@H]1CN(C(C)=O)C[C@H]1Oc1ncccc1Nc1ncnc2cc(N=S(C)(C)=O)cc(C)c12 [Example 6.3]
20 nM,–,62%,CO[C@@H]1CN(S(C)(=O)=O)C[C@H]1Oc1cc(F)ccc1Nc1ncnc2cc(N=S3(=O)CCCC3)cc(C)c12 [Example 6.4]
28 nM,–,60%,CO[C@@H]1CN(S(C)(=O)=O)C[C@H]1Oc1ncccc1Nc1ncnc2cc(N=S3(=O)CCCC3)cc(C)c12 [Example 6.5]
80 nM,1400 nM,–,CO[C@@H]1CN(S(C)(=O)=O)C[C@H]1Oc1ncccc1Nc1ncnc2cc(N=S(C)(C)=O)cc(C)c12 [Example 6.6]
62 nM,–,35%,CO[C@@H]1CN(S(C)(=O)=O)C[C@H]1Oc1cc(F)ccc1Nc1ncnc2cc(N=S(C)(C)=O)cc(C)c12 [Example 6.7]

IC50 (MNK2a),IC50 (MNK1a),inhibition at 1 µM (MNK1a),Structure (SMILES)
128 nM,–,41%,CO[C@@H]1CN(C(C)=O)C[C@H]1Oc1ncccc1Nc1ncnc2cc(N=S3(=O)CCCC3)cc(C)c12 [Example 6.8]
378 nM,–,38%,CC(=O)O[C@H]1CN(C(C)=O)C[C@@H]1Oc1ncccc1Nc1ncnc2cc(N=S3(=O)CCCC3)cc(C)c12 [Example 6.10]
3 nM,–,97%,COc1cc(N=S2(=O)CCCC2)cc2ncnc(Nc3ccc(Cl)nc3O[C@H]3COC[C@@H]3O)c12 [Example 8.1]
3 nM,–,100%,COc1cc(N=S(C)(C)=O)cc2ncnc(Nc3ccc(Cl)nc3O[C@H]3COC[C@@H]3O)c12 [Example 8.2]
6 nM,–,97%,COc1cc(N=S2(=O)CCCC2)cc2ncnc(Nc3cccnc3O[C@H]3COC[C@@H]3O)c12 [Example 8.3]
7 nM,–,102%,COc1cc(N=S(C)(C)=O)cc2ncnc(Nc3ccc(F)cc3O[C@H]3COC[C@@H]3O)c12 [Example 9.4]
8 nM,–,94%,CCOc1cc(N=S(C)(C)=O)cc2ncnc(Nc3ccc(F)cc3O[C@H]3COC[C@@H]3O)c12 [Example 9.6]
39 nM,–,75%,CS(C)(=O)=Nc1cc(OCCF)c2c(Nc3ccc(F)cc3O[C@H]3COC[C@@H]3O)ncnc2c1 [Example 9.8]
7 nM,–,94%,COc1cc(N=S(C)(=O)C(C)C)cc2ncnc(Nc3ccc(F)cc3O[C@H]3COC[C@@H]3O)c12 (some centres unmarked) [Example 9.9]
3 nM,28 nM,104%,COc1cc(N=S2(=O)CCC2)cc2ncnc(Nc3ccc(F)cc3O[C@H]3COC[C@@H]3O)c12 [Example 9.10]
13 nM,–,84%,COc1cc(N=S(C)(=O)c2cccnc2)cc2ncnc(Nc3ccc(F)cc3O[C@H]3COC[C@@H]3O)c12 (some centres unmarked) [Example 9.14]
8 nM,–,97%,COc1cc(N=S(C)(=O)C(C)(C)C)cc2ncnc(Nc3ccc(F)cc3O[C@H]3COC[C@@H]3O)c12 (some centres unmarked) [Example 9.18]
4 nM,–,97%,COc1cc(N=S2(=O)CCC(C)C2)cc2ncnc(Nc3ccc(F)cc3O[C@H]3COC[C@@H]3O)c12 (some centres unmarked) [Example 9.24]
3 nM,–,94%,COc1cc(N=S2(=O)CCCC2)cc2ncnc(Nc3ccc(F)cc3O[C@H]3COC[C@@H]3O)c12 [Example 9.29]
54 nM,–,44%,CO[C@@H]1CN(C)C[C@H]1Oc1cc(F)ccc1Nc1ncnc2cc(N=S(C)(C)=O)cc(C)c12 [Example 11.1]
31 nM,–,75%,CO[C@@H]1CN(C)C[C@H]1Oc1cc(F)ccc1Nc1ncnc2cc(N=S3(=O)CCCC3)cc(C)c12 [Example 11.2]
12 nM,–,87%,CO[C@@H]1CN(C)C[C@H]1Oc1ncccc1Nc1ncnc2cc(N=S3(=O)CCCC3)cc(C)c12 [Example 11.3]
59 nM,–,56%,CO[C@@H]1CN(C)C[C@H]1Oc1ncccc1Nc1ncnc2cc(N=S(C)(C)=O)cc(C)c12 [Example 11.4]
15 nM,–,79%,Cc1cc(N=S2(=O)CCCC2)cc2ncnc(Nc3ccc(F)cc3O[C@@H]3COC[C@@H]3OCc3ccccc3)c12 [Example 13.3]
